Structures are written as SMILES. pIC50: −log10 of the molar value. Where a name gives a salt, the structure may show the parent alone. Bounds are passed on as bounds.

The target of this test is T1, purified STEP46 enzyme (Homo sapiens, UniProt P54829).
T1 sequence (P54829 197-565 limits assumed): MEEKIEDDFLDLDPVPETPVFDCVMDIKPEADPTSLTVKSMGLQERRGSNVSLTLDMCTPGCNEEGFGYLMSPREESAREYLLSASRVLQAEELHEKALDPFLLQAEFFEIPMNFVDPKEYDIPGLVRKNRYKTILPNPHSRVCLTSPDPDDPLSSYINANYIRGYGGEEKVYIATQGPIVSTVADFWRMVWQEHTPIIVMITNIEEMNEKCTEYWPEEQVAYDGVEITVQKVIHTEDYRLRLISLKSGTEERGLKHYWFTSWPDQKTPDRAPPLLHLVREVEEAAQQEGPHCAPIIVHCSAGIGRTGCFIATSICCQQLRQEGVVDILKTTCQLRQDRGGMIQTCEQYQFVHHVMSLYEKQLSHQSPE
Briefly: STEP46 biochemical assay (DiFMUP fluorescence phosphatase assay). Conditions: DiFMUP 10 μM, read-out: STEP IC50. Here is the method:
Serial dilutions of compounds were performed in 100% DMSO and 1 uL of compounds were dispensed into 384-well black polystyrene plates (Corning, N.Y.). Compounds were incubated with 24 uL of buffer containing 50 mM Hepes, 1 mM DTT, 0.02% Brij35, 1 ng/well purified STEP46 enzyme for […] at room temperature. The reaction was initiated by addition of 25 uL of DiFMUP (6,8-difluoro-4-methylumbelliferyl phosphate) (InVitrogen, CA) with a final concentration of 10 μM and incubated at 27° C. for 90 mM Final DMSO concentration is 2%. Plates were read with florescence intensity at excitation/emission of 360/460 nm using a PheraStar plate reader (BMG Labtech, NC).
Data were expressed as percentage (%) inhibition of enzyme activity. 0% inhibition is defined as the RFUs (relative fluorescence units) in the absence of compounds and 100% inhibition is defined as RFUs in the absence of STEP46 enzyme. IC50 values of compounds with inhibitory activity against STEP46 were determined by GraphPad Prism (version 4.03) using four parameter logistic equation. Some compounds act as activators. For compounds showing STEP46 enzymatic activation, data are represented as percentage of inhibition but with negative values at three representative concentrations (25, 50 and 100 uM).
Regarding `Cc1cncc(Nc2nc(-c3cccnc3)nc3ccc(Cl)cc23)c1` [Compound 66], the pIC50 is 5.00 to 6.00.
Under `CCOc1ccc2nc(-c3cccnc3)nc(Nc3cc(C)c(F)cn3)c2c1` [Compound 67] stands 5.00 to 6.00; under `CCOc1ccc2nc(-c3cccnc3)nc(Nc3cncc(Cl)c3)c2c1` [Compound 69], over 6.00; under `Clc1cncc(Nc2nc(-c3cccnc3)nc3ccc(Cl)cc23)c1` [Compound 70], over 6.00.
Turning to `CCOc1ccc2nc(-c3ccnnc3)nc(Nc3ccccc3C(N)=O)c2c1` [Compound 71], the pIC50 was 5.00 to 6.00.
Next, `Fc1ccc(-c2ccc3nc(-c4cccnc4)nc(N4CCc5cc(Cl)ccc54)c3c2)c(F)c1` [Compound 72]: 5.00 to 6.00; `Cc1ccc2c(c1)CCN2c1nc(-c2cccnc2)nc2ccc(-c3ccc(F)cc3F)cc12` [Compound 73]: 5.00 to 6.00.
Under `Cc1ccc2c(c1)CCN2c1nc(-c2cccnc2)nc2ccc(-c3cccc(F)c3F)cc12` [Compound 74] stands 5.00 to 6.00; under `Fc1cccc(-c2ccc3nc(-c4cccnc4)nc(N4CCc5cc(Cl)ccc54)c3c2)c1F` [Compound 75], 5.00 to 6.00; under `Clc1ccc2c(c1)CCN2c1nc(-c2cccnc2)nc2ccc(-c3ccc4c(c3)OCO4)cc12` [Compound 76], 5.00 to 6.00.
With `Cc1ccc2c(c1)CCN2c1nc(-c2cccnc2)nc2ccc(-c3cccc(F)c3)cc12` [Compound 78], the negative logarithm of the IC50 (pIC50) was 5.00 to 6.00.
Next, `Cc1ccc2c(c1)CCN2c1nc(-c2cccnc2)nc2ccc(-c3ccc(F)cc3)cc12` [Compound 79]: 5.00 to 6.00.
Next, `Cc1ccc2c(c1)CCN2c1nc(-c2cccnc2)nc2ccc(-c3cc(F)cc(F)c3)cc12` [Compound 80]: under 5.00; `Cc1ccc2c(c1)CCN2c1nc(-c2cccnc2)nc2ccc(-c3ccc(C#N)cc3)cc12` [Compound 81]: 5.00 to 6.00.
For `O=[N+]([O-])c1cccc(-c2ccc3nc(-c4cccnc4)nc(N4CCc5cc(Cl)ccc54)c3c2)c1` [Compound 82], the pIC50 is 5.00 to 6.00.
Under `O=[N+]([O-])c1ccc2c(c1)CCN2c1nc(-c2cccnc2)nc2ccc(-c3cccc(F)c3F)cc12` [Compound 83] stands over 6.00; under `Fc1ccc(-c2ccc3nc(-c4cccnc4)nc(N4CCc5cc(Cl)ccc54)c3c2)cc1` [Compound 86], 5.00 to 6.00; under `O=[N+]([O-])c1ccc2c(c1)CCN2c1nc(-c2cccnc2)nc2ccc(-c3ccc(F)cc3)cc12` [Compound 87], over 6.00.
Next, `Fc1ccc(-c2ccc3nc(-c4cccnc4)nc(N4CCc5ccccc54)c3c2)cc1` [Compound 88]: 5.00 to 6.00; `COc1ccc2c(c1)CCN2c1nc(-c2cccnc2)nc2ccc(-c3ccc(F)cc3)cc12` [Compound 90]: over 6.00; `Fc1ccc(-c2ccc3nc(-c4cccnc4)nc(N4CCc5cc(F)ccc54)c3c2)cc1` [Compound 91]: 5.00 to 6.00.
Regarding `Fc1ccc(-c2ccc3nc(-c4cccnc4)nc(N4CCc5ccc(Cl)cc54)c3c2)cc1` [Compound 93], the negative logarithm of the IC50 (pIC50) was 5.00 to 6.00.
Under `Fc1ccc(-c2ccc3c(N4CCc5cc(Cl)ccc54)nc(-c4cccnc4)nc3c2)c(F)c1` [Compound 94] stands 5.00 to 6.00; under `Fc1ccccc1-c1ccc2c(N3CCc4cc(Cl)ccc43)nc(-c3cccnc3)nc2c1` [Compound 95], 5.00 to 6.00; under `Fc1cccc(-c2ccc3c(N4CCc5cc(Cl)ccc54)nc(-c4cccnc4)nc3c2)c1` [Compound 96], 5.00 to 6.00.
Under `Fc1ccc(-c2ccc3c(N4CCc5cc(Cl)ccc54)nc(-c4cccnc4)nc3c2)cc1` [Compound 97] stands 5.00 to 6.00; under `Cc1ccc2c(c1)CCN2c1nc(-c2cccnc2)nc2cc(-c3cc(F)ccc3F)ccc12` [Compound 98], 5.00 to 6.00.
As for `Clc1ccc2c(c1)CCN2c1nc(-c2cccnc2)nc2cc(-c3cccnc3)ccc12` [Compound 99], the pIC50 is over 6.00.
Under `Clc1ccc2c(c1)CCN2c1nc(-c2cccnc2)nc2cc(-c3ccncc3)ccc12` [Compound 100] stands 5.00 to 6.00.
As to `Clc1ccc2c(c1)CCN2c1nc(-c2cccnc2)nc2cc(-c3cncnc3)ccc12` [Compound 101], the pIC50 is over 6.00.
For `CC(=O)Nc1cccc(-c2ccc3c(N4CCc5cc(Cl)ccc54)nc(-c4cccnc4)nc3c2)c1` [Compound 102], the negative-log IC50 (pIC50) is 5.00 to 6.00.
Under `Fc1ccc(-c2ccc3c(N4CCc5ccccc54)nc(-c4cccnc4)nc3c2)c(F)c1` [Compound 103] stands 5.00 to 6.00; under `O=[N+]([O-])c1ccc2c(c1)CCN2c1nc(-c2cccnc2)nc2cc(-c3ccc(F)cc3F)ccc12` [Compound 104], over 6.00.
For the molecule `O=[N+]([O-])c1ccc2c(c1)CCN2c1nc(-c2cccnc2)nc2cc(-c3cccnc3)ccc12` [Compound 106], the negative-log IC50 (pIC50) is over 6.00.
Under `Fc1cccc(-c2ccc3c(N4CCc5cc(Cl)ccc54)nc(-c4cccnc4)nc3c2)c1F` [Compound 108] stands 5.00 to 6.00.
As to `Fc1ccc(F)c(-c2ccc3c(N4CCc5cc(Cl)ccc54)nc(-c4cccnc4)nc3c2)c1` [Compound 109], the pIC50 is 5.00 to 6.00.
Under `COc1cc(F)ccc1-c1ccc2c(N3CCc4cc(Cl)ccc43)nc(-c3cccnc3)nc2c1` [Compound 110] stands over 6.00.
Next, `Clc1ccc2c(c1)CCN2c1nc(-c2cccnc2)nc2cc(-c3ccccc3Cl)ccc12` [Compound 111]: under 5.00; `Cc1c(-c2cccnc2)ccc2c(N3CCc4cc(Cl)ccc43)nc(-c3cccnc3)nc12` [Compound 114]: over 6.00; `Cc1c(-c2cncnc2)ccc2c(N3CCc4cc(Cl)ccc43)nc(-c3cccnc3)nc12` [Compound 115]: over 6.00.
Next, `Cc1c(-c2cccc(F)c2)ccc2c(N3CCc4cc(Cl)ccc43)nc(-c3cccnc3)nc12` [Compound 117]: under 5.00; `CNc1nc(-c2cccnc2)nc2ccc(OCCCN3CCN(C)CC3)cc12` [Compound 136, N-methyl-6-(3-(4-methylpiperazin-1-yl)propoxy)-2-(pyridin-3-yl)quinazolin-4-amine tetrahydrochloride]: 5.00 to 6.00.
As to `CCCOc1ccc2nc(-c3cccnc3)nc(N3CCc4cc(Cl)ccc43)c2c1` [Compound 137], the pIC50 was over 6.00.
Turning to `CNc1nc(-c2cccnc2)nc2cc(-c3cccc(OCC(=O)N(C)C)c3)ccc12` [Compound 138], the negative logarithm of the IC50 (pIC50) is 5.00 to 6.00.
Turning to `CCOc1cccc(-c2ccc3c(NC)nc(-c4cccnc4)nc3c2)c1` [Compound 141], the negative-log IC50 (pIC50) was 5.00 to 6.00.
Next, `CNC(=O)COc1cc(F)cc(-c2ccc3c(NC)nc(-c4cccnc4)nc3c2)c1` [Compound 142]: 5.00 to 6.00.
Under `CNc1nc(-c2cccnc2)nc2cc(-c3cc(F)cc(OCC(=O)N(C)C)c3)ccc12` [Compound 143] stands 5.00 to 6.00; under `CNc1nc(-c2cccnc2)nc2cc(-c3cc(F)cc(OCCOC)c3)ccc12` [Compound 144], 5.00 to 6.00; under `CCOc1cc(F)cc(-c2ccc3c(NC)nc(-c4cccnc4)nc3c2)c1` [Compound 145], 5.00 to 6.00.
Take `CNc1nc(-c2cncnc2)nc2cc(-c3cc(F)ccc3F)ccc12` [Compound 155]: the negative-log IC50 (pIC50) was 5.00 to 6.00.
On to `CNc1nc(-c2ccc(F)nc2)nc2cc(-c3cc(F)ccc3F)ccc12` [Compound 156], for which the negative logarithm of the IC50 (pIC50) was 5.00 to 6.00.
Under `CNc1nc(-c2cncc(F)c2)nc2cc(-c3cc(F)ccc3F)ccc12` [Compound 157] stands 5.00 to 6.00.
Under `CNc1nc(-c2cccnc2OC)nc2cc(-c3cc(F)ccc3F)ccc12` [Compound 158] stands 5.00 to 6.00; under `CNc1nc(-c2cncc(C)c2)nc2cc(-c3cc(F)ccc3F)ccc12` [Compound 160], 5.00 to 6.00.
Next, `CNc1nc(-c2ccc(C)nc2)nc2cc(-c3cc(F)ccc3F)ccc12` [Compound 161]: 5.00 to 6.00; `CNc1nc(-c2cncc(OC)c2)nc2cc(-c3cc(F)ccc3F)ccc12` [Compound 162]: 5.00 to 6.00.
Regarding `CNc1nc(-c2cncc(C#N)c2)nc2cc(-c3cc(F)ccc3F)ccc12` [Compound 163], the negative-log IC50 (pIC50) was 5.00 to 6.00.
Next, `CNc1nc(-c2cccnc2)nc2ccc(-c3cccc(CC(N)=O)c3)cc12` [Compound 166]: under 5.00; `CNc1nc(-c2cccnc2)nc2ccc(-c3ccnc(C#N)c3)cc12` [Compound 167]: 5.00 to 6.00.
Next, `CNc1nc(-c2cccnc2)nc2ccc(-c3ccc4[nH]c(=O)[nH]c4c3)cc12` [Compound 168]: over 6.00.
Next, `CNc1nc(-c2cccnc2)nc2ccc(-c3ccc4sc(C)nc4c3)cc12` [Compound 169, N-methyl-6-(2-methylbenzo[d]thiazol-5-yl)-2-(pyridin-3-yl)quinazolin-4-amine, 2HCl]: over 6.00.

The values above are taken from patent publication US20140315886A1, “QUINAZOLINES AS THERAPEUTIC COMPOUNDS AND RELATED METHODS OF USE” (OTSUKA PHARMACEUTICAL CO., LTD., priority 2011, published 2014).
